PubChem BioAssay AID1259407 (Chemical Carcinogenesis Research Information System (CCRIS), 2018)
Active and inactive are the calls of the source. How the calls were made is not given here.

Test system: CCRIS mutagenicity, Ames/micronucleus/aberration tests
Assay: CCRIS mutagenicity studies

With `O=[N+]([O-])c1ccc2c(c1)Cc1ccccc1-2` the mutagenic call (End Point: IN VITRO CHROMOSOMAL ABERRATIONS, Test System: CHINESE HAMSTER LUNG (CHL) CELLS, Metabolic Activation: NONE) was “inactive; negative”, the mutagenic call (End Point: IN VITRO CHROMOSOMAL ABERRATIONS, Test System: CHINESE HAMSTER LUNG (CHL) CELLS, Metabolic Activation: RAT, LIVER, S-9, KC-400) was “active; positive” and the mutagenic call (End Point: IN VITRO MICRONUCLEUS, Test System: CHL/IU CELLS, Metabolic Activation: NONE) was “active; positive”. The mutagenic call (Test System: AMES SALMONELLA TYPHIMURIUM, Strain/Indicator: TA98 (1,8-DNP6), Metabolic Activation: NONE, Method: PREINCUBATION) was “active; positive”, the mutagenic call (Test System: AMES SALMONELLA TYPHIMURIUM, Strain/Indicator: TA98(1,8-DNP6), Metabolic Activation: NONE, Method: STANDARD PLATE) was “active; positive” and the mutagenic call (Test System: AMES SALMONELLA TYPHIMURIUM, Strain/Indicator: TA98 (NR), Metabolic Activation: NONE, Method: PREINCUBATION) was “active; positive”. The mutagenic call (Test System: AMES SALMONELLA TYPHIMURIUM, Strain/Indicator: TA98(NR), Metabolic Activation: NONE, Method: STANDARD PLATE) was “active; positive”, the mutagenic call (Test System: AMES SALMONELLA TYPHIMURIUM, Strain/Indicator: TA98 (NR), Metabolic Activation: RAT LIVER S-9 (10%), Method: PREINCUBATION) was “active; positive” and the mutagenic call (Test System: AMES SALMONELLA TYPHIMURIUM, Strain/Indicator: TA98 (NR), Metabolic Activation: RAT LIVER S-9, 3-METHYLCHOLANTHRENE (10%), Method: PREINCUBATION) was “active; positive”. The mutagenic call (Test System: AMES SALMONELLA TYPHIMURIUM, Strain/Indicator: TA98 (NR), Metabolic Activation: RAT LIVER S-9, BETA-NAPHTHAFLAVONE (10%), Method: PREINCUBATION) was “active; positive”, the mutagenic call (Test System: AMES SALMONELLA TYPHIMURIUM, Strain/Indicator: TA98(NR), Metabolic Activation: RAT LIVER S-9, PHENOBARBITAL (10%), Method: PREINCUBATION) was “active; positive” and the mutagenic call (Test System: AMES SALMONELLA TYPHIMURIUM, Strain/Indicator: TA98 (NR), Metabolic Activation: RAT LIVER S-9 PCB, 10%, Method: PREINCUBATION) was “active; positive”. The mutagenic call (Test System: AMES SALMONELLA TYPHIMURIUM, Strain/Indicator: TA98, Metabolic Activation: NONE, Method: SPIRAL ASSAY) was “active; positive”, the mutagenic call (Test System: AMES SALMONELLA TYPHIMURIUM, Strain/Indicator: TA98, Metabolic Activation: RAT, LIVER, S-9, AROCLOR 1254, Method: SPIRAL ASSAY) was “active; positive” and the mutagenic call (Test System: AMES SALMONELLA TYPHIMURIUM, Strain/Indicator: TA98, Metabolic Activation: RAT, LIVER, S-9, AROCLOR 1254, Method: STANDARD PLATE) was “active; positive”. For the same compound, the mutagenic call (Test System: AMES SALMONELLA TYPHIMURIUM, Strain/Indicator: TA98, Metabolic Activation: RAT, LIVER, S-9, PCB (10%), Method: PREINCUBATION) was “active; positive”, the mutagenic call (Test System: AMES SALMONELLA TYPHIMURIUM, Strain/Indicator: TA98, Metabolic Activation: S-9, Method: PREINCUBATION) was “active; positive” and the mutagenic call (Test System: AMES SALMONELLA TYPHIMURIUM, Strain/Indicator: TA98, Metabolic Activation: S-9, Method: STANDARD PLATE) was “active; positive”. The mutagenic call (Test System: AMES SALMONELLA TYPHIMURIUM, Strain/Indicator: TA100(NR), Metabolic Activation: NONE, Method: STANDARD PLATE) was “inactive; negative”, the mutagenic call (Test System: AMES SALMONELLA TYPHIMURIUM, Strain/Indicator: TA100(TN5-1,8-DNP1012), Metabolic Activation: NONE, Method: STANDARD PLATE) was “inactive; negative” and the mutagenic call (Test System: AMES SALMONELLA TYPHIMURIUM, Strain/Indicator: TA100, Metabolic Activation: NONE, Method: PREINCUBATION) was “active; positive”. The mutagenic call (Test System: AMES SALMONELLA TYPHIMURIUM, Strain/Indicator: TA100, Metabolic Activation: NONE, Method: SPIRAL ASSAY) was “active; positive”, the mutagenic call (Test System: AMES SALMONELLA TYPHIMURIUM, Strain/Indicator: TA100, Metabolic Activation: RAT, LIVER, S-9, AROCLOR 1254, Method: SPIRAL ASSAY) was “active; positive” and the mutagenic call (Test System: AMES SALMONELLA TYPHIMURIUM, Strain/Indicator: TA100, Metabolic Activation: RAT, LIVER, S-9, AROCLOR 1254, Method: STANDARD PLATE) was “active; positive”. For the same compound, the mutagenic call (Test System: AMES SALMONELLA TYPHIMURIUM, Strain/Indicator: TA100, Metabolic Activation: S-9, Method: STANDARD PLATE) was “active; positive”, the mutagenic call (Test System: AMES SALMONELLA TYPHIMURIUM, Strain/Indicator: TA102, Metabolic Activation: NONE, Method: PREINCUBATION) was “active; positive” and the mutagenic call (Test System: AMES SALMONELLA TYPHIMURIUM, Strain/Indicator: TA1535, Metabolic Activation: NONE, Method: PREINCUBATION) was “active; positive”. For the same compound, the mutagenic call (Test System: AMES SALMONELLA TYPHIMURIUM, Strain/Indicator: TA1535, Metabolic Activation: NONE, Method: SPIRAL ASSAY) was “inactive; negative”, the mutagenic call (Test System: AMES SALMONELLA TYPHIMURIUM, Strain/Indicator: TA1535, Metabolic Activation: NONE, Method: STANDARD PLATE) was “inactive; negative” and the mutagenic call (Test System: AMES SALMONELLA TYPHIMURIUM, Strain/Indicator: TA1535, Metabolic Activation: RAT, LIVER, S-9, AROCLOR 1254, Method: SPIRAL ASSAY) was “inactive; negative”. The mutagenic call (Test System: AMES SALMONELLA TYPHIMURIUM, Strain/Indicator: TA1535, Metabolic Activation: RAT, LIVER, S-9, AROCLOR 1254, Method: STANDARD PLATE) was “inactive; negative”, the mutagenic call (Test System: AMES SALMONELLA TYPHIMURIUM, Strain/Indicator: TA1537, Metabolic Activation: NONE, Method: SPIRAL ASSAY) was “active; positive” and the mutagenic call (Test System: AMES SALMONELLA TYPHIMURIUM, Strain/Indicator: TA1537, Metabolic Activation: NONE, Method: STANDARD PLATE) was “active; positive”. The mutagenic call (Test System: AMES SALMONELLA TYPHIMURIUM, Strain/Indicator: TA1537, Metabolic Activation: RAT, LIVER, S-9, AROCLOR 1254, Method: SPIRAL ASSAY) was “active; positive”, the mutagenic call (Test System: AMES SALMONELLA TYPHIMURIUM, Strain/Indicator: TA1537, Metabolic Activation: RAT, LIVER, S-9, AROCLOR 1254, Method: STANDARD PLATE) was “active; positive” and the mutagenic call (Test System: AMES SALMONELLA TYPHIMURIUM, Strain/Indicator: TA1538, Metabolic Activation: NONE, Method: STANDARD PLATE) was “active; positive”. The mutagenic call (Test System: AMES SALMONELLA TYPHIMURIUM, Strain/Indicator: TA1975, Metabolic Activation: NONE, Method: PREINCUBATION) was “active; positive”, the mutagenic call (Test System: AMES SALMONELLA TYPHIMURIUM, Strain/Indicator: YG1020, Metabolic Activation: NONE, Method: PREINCUBATION) was “active; positive” and the mutagenic call (Test System: AMES SALMONELLA TYPHIMURIUM, Strain/Indicator: YG1024, Metabolic Activation: NONE, Method: PREINCUBATION) was “active; positive”. The mutagenic call (Test System: AMES SALMONELLA TYPHIMURIUM, Strain/Indicator: YG1025, Metabolic Activation: NONE, Method: PREINCUBATION) was “active; positive”, the mutagenic call (Test System: AMES SALMONELLA TYPHIMURIUM, Strain/Indicator: YG1029, Metabolic Activation: NONE, Method: PREINCUBATION) was “active; positive” and the mutagenic call (Test System: AMES SALMONELLA TYPHIMURIUM, Strain/Indicator: YG3001, Metabolic Activation: NONE, Method: PREINCUBATION) was “active; positive”. For the same compound, the mutagenic call (Test System: AMES SALMONELLA TYPHIMURIUM, Strain/Indicator: YG3002, Metabolic Activation: NONE, Method: PREINCUBATION) was “active; positive”, the mutagenic call (Test System: AMES SALMONELLA TYPHIMURIUM, Strain/Indicator: YG3003, Metabolic Activation: NONE, Method: PREINCUBATION) was “active; positive” and the mutagenic call (Test System: AMES SALMONELLA TYPHIMURIUM, Strain/Indicator: YG7112, Metabolic Activation: NONE, Method: PREINCUBATION) was “active; positive”. For the same compound, the mutagenic call (Test System: AMES SALMONELLA TYPHIMURIUM, Strain/Indicator: YG7113, Metabolic Activation: NONE, Method: PREINCUBATION) was “active; positive”, the mutagenic call (Test System: CHINESE HAMSTER OVARY, Strain/Indicator: CHO-K1-BH4 (HGPRT), Metabolic Activation: RAT, LIVER, S-9, AROCLOR, Method: SUSPENSION/PLATE) was “active; positive” and the mutagenic call (Test System: E. COLI, Strain/Indicator: WP2 UVRA, Metabolic Activation: HAMSTER, LIVER, S-9, AROCLOR 1254, Method: STANDARD PLATE) was “inactive; negative”. The mutagenic call (Test System: E. COLI, Strain/Indicator: WP2 UVRA, Metabolic Activation: HAMSTER, LIVER, S-9, Method: STANDARD PLATE) was “inactive; negative”, the mutagenic call (Test System: E. COLI, Strain/Indicator: WP2 UVRA, Metabolic Activation: MOUSE, LIVER, S-9, AROCLOR 1254, Method: STANDARD PLATE) was “inactive; negative” and the mutagenic call (Test System: E. COLI, Strain/Indicator: WP2 UVRA, Metabolic Activation: MOUSE, LIVER, S-9, Method: STANDARD PLATE) was “inactive; negative”. For the same compound, the mutagenic call (Test System: E. COLI, Strain/Indicator: WP2 UVRA, Metabolic Activation: NONE, Method: STANDARD PLATE) was “inactive; negative”, the mutagenic call (Test System: E. COLI, Strain/Indicator: WP2 UVRA, Metabolic Activation: RAT, LIVER, S-9, AROCLOR 1254, Method: STANDARD PLATE) was “inactive; negative” and the mutagenic call (Test System: E. COLI, Strain/Indicator: WP2 UVRA, Metabolic Activation: RAT, LIVER, S-9, Method: STANDARD PLATE) was “inactive; negative”. The mutagenic call (Test System: MOUSE LYMPHOMA, Strain/Indicator: L5178Y (TK+/TK-), Metabolic Activation: NONE, Method: SUSPENSION/PLATE) was “active; positive” and the mutagenic call (Test System: UDS RAT HEPATOCYTES, Strain/Indicator: THY INCORP, Metabolic Activation: NONE, Method: AUTORADIOGRAPHY (SERUM-FREE MEDIA)) was “active; positive”.
